Drawing on patent US8975406B2, “Compound useful for the treatment of degenerative and inflammatory diseases” (Galapagos N.V., priority 2011, dated 2015), this text covers IC50 for 25 molecules.

The structures appear in SMILES notation. pIC50: −log10 of the molar value. Some results are limits rather than exact numbers.

This assay has as its system JAK-STAT signalling in HeLa cells. Nature of the assay: JAK-STAT signalling assay (pSTAT1(2)-luciferase reporter, OSM-triggered HeLa cells). It counts as cell-based. As to conditions: human OSM 33 ng/mL. The method, then:
HeLa cells were maintained in Dulbecco's Modified Eagle's Medium (DMEM) containing 10% heat inactivated fetal calf serum, 100 U/mL penicillin and 100 μg/mL streptomycin. HeLa cells were used at 70% confluence for transfection. 20,000 cells in 87 μL cell culture medium were transiently transfected with 40 ng pSTAT1(2)-luciferase reporter (Panomics), 8 ng of LacZ reporter as internal control reporter and 52 ng of pBSK using 0.32 μL Jet-PEI (Polyplus) as transfection reagent per well in 96-well plate format. After overnight incubation at 37° C., 5% CO2, transfection medium was removed. 81 μL of DMEM+1.5% heat inactivated fetal calf serum was added. 9 μL compound at 10× concentration was added for 60 min and then 10 μL of human OSM (Peprotech) at 33 ng/mL final concentration.
All compounds were tested in duplicate starting from 20 μM followed by a ⅓ serial dilution, 8 doses in total (20 μM-6.6 μM-2.2 μM-740 nM-250 nM-82 nM-27 nM-9 nM) in a final concentration of 0.2% DMSO.
After overnight incubation at 37° C., 5% CO2 cells were lysed by adding 100 μL lysis buffer/well (PBS, 0.9 mM CaCl2, 0.5 mM MgCl2, 10% Trehalose, 0.05% Tergitol NP9, 0.3% BSA).
40 μL of cell lysate was used to read β-galactosidase activity by adding 180 μL β-Gal solution (30 μl ONPG 4 mg/mL+150 μL β-Galactosidase buffer (0.06 M Na2HPO4, 0.04 M NaH2PO4, 1 mM MgCl2)) for 20 min. The reaction was stopped by addition of 50 μL Na2CO3 1 M. Absorbance was read at 405 nm.
Luciferase activity was measured using 40 μL cell lysate plus 40 μL of Steadylite® as described by the manufacturer (Perkin Elmer), on the Envision (Perkin Elmer).
Omitting OSM was used as a positive control (100% inhibition). As negative control 0.5% DMSO (0% inhibition) was used. The positive and negative controls were used to calculate z′ and ‘percent inhibition’ (PIN) values. Percentage inhibition=((fluorescence determined in the presence of vehicle−fluorescence determined for sample with test compound present)divided by(fluorescence determined in the presence of vehicle−fluorescence determined for sample without trigger))*100.
PIN values were plotted for compounds tested in dose-response and EC50 values were derived.
For orientation: In a reporter assay the amount or activity of a reporter protein is the signal.

For `CC(=O)Nc1cc2c(-c3ccc(C(C)N4CCN(S(C)(=O)=O)CC4)cc3)cccn2n1` (stereo not shown) [Compound 45, N-(4-(4-(1-(4-(methylsulfonyl)piperazin-1-yl)ethyl)phenyl)pyrazolo[1,5-a]pyridin-2-yl)acetamide], the pIC50 (as a rule, the IC50 on a negative log10 scale, so that one unit is a factor of ten) is 6.00 to 6.30.

`CC(=O)Nc1cc2c(-c3ccc(CC(=O)N4CC(F)(F)C4)cc3)cccn2n1` [Compound 34, N-(4-(4-(2-(3,3-difluoroazetidin-1-yl)-2-oxoethyl)phenyl)pyrazolo[1,5-a]pyridin-2-yl)acetamide] had a pIC50 of 6.00 to 6.30.

With `CC(=O)Nc1cc2c(-c3ccc(CN4CCN(S(C)(=O)=O)CC4)cc3)cccn2n1` [Compound 25, N-(4-(4-((4-(methylsulfonyl)piperazin-1-yl)methyl)phenyl)pyrazolo[1,5-a]pyridin-2-yl)acetamide], the pIC50 was 6.00 to 6.30.

Consider `CC(=O)Nc1cc2c(-c3ccc(CN4CCC(S(C)(=O)=O)CC4)c(F)c3)cccn2n1` [Compound 29, N-(4-(3-fluoro-4((4-(methylsulfonyl)piperidin-1-yl)methyl)phenyl)pyrazolo[1,5-a]pyridin-2-yl)acetamide], for which the pIC50 was under 6.00.

`CC(=O)Nc1cc2c(-c3ccc(CN4CCN(S(C)(=O)=O)C[C@H]4C)cc3)cccn2n1` [Compound 24, (R)-N-(4-(4-((2-methyl-4-(methylsulfonyl)piperazin-1-yl)methyl)phenyl)pyrazolo[1,5-a]pyridin-2-yl)acetamide] had a pIC50 of under 6.00.

`CS(=O)(=O)N1CC[C@@H](Oc2ccc(-c3cccn4nc(NC(=O)C5CC5)cc34)cc2)C1` [Compound 49, (R)-N-(4-(4-(1-(methylsulfonyl)pyrrolidin-3-yloxy)phenyl)pyrazolo[1,5-a]pyridin-2-yl)cyclopropanecarboxamide] gave a pIC50 of 6.30 to 7.00.

Regarding `C[C@H](c1ccc(-c2cccn3nc(NC(=O)C4CC4)cc23)cc1)N1CCN(S(C)(=O)=O)CC1` [Compound 46, (R)-N-(4-(4-(1-(4-(methylsulfonyl)piperazin-1-yl)ethyl)phenyl)pyrazolo[1,5-a]pyridin-2-yl)cyclopropanecarboxamide], the negative logarithm of the IC50 (pIC50) was 6.30 to 7.00.

As to `CS(=O)(=O)C1CCN(Cc2ccc(-c3cccn4nc(NC(=O)C5CC5)cc34)cc2)CC1` [Compound 17, N-(4-(4-((4-(methylsulfonyl)piperidin-1-yl)methyl)phenyl)pyrazolo[1,5-a]pyridin-2-yl)cyclopropanecarboxamide], the pIC50 is 6.00 to 6.30.

In turn, `O=C(Nc1nn2cccc(-c3ccc(CN4CCS(=O)(=O)CC4)cc3)c2c1Br)C1CC1` [Compound 12, Cyclopropanecarboxylic acid {4-[4-(1,1-dioxo-thiomorpholin-4-ylmethyl)-phenyl]-3-bromo-pyrazolo[1,5-a]pyridin-2-yl}-amide] showed a pIC50 of under 6.00.

Molecule `CC(=O)Nc1cc2c(-c3ccc(CN4CCN(S(C)(=O)=O)CC4)c(F)c3)cccn2n1` [Compound 21] gave a pIC50 of 6.00 to 6.30.

On to `C[C@@H](c1ccc(-c2cccn3nc(NC(=O)C4CC4)cc23)cc1)N1CCN(S(C)(=O)=O)CC1` [Compound 47, (S)-N-(4-(4-(1-(4-(methylsulfonyl)piperazin-1-yl)ethyl)phenyl)pyrazolo[1,5-a]pyridin-2-yl)cyclopropanecarboxamide], for which the pIC50 was 6.30 to 7.00.

As for `CS(=O)(=O)C1CCN(Cc2ccc(-c3cccn4nc(NC(=O)C5CC5)c(Cl)c34)cc2)CC1` [Compound 19, N-(3-chloro-4-(4-((4-(methylsulfonyl)piperidin-1-yl)methyl)phenyl)pyrazolo[1,5-a]pyridin-2-yl)cyclopropanecarboxamide], the pIC50 was under 6.00.

In the case of `C[C@@H]1CN(S(C)(=O)=O)CCN1Cc1ccc(-c2cccn3nc(NC(=O)C4CC4)cc23)cc1` [Compound 44, (R)-N-(4-(4-((2-methyl-4-(methylsulfonyl)piperazin-1-yl)methyl)phenyl)pyrazolo[1,5-a]pyridin-2-yl)cyclopropanecarboxamide], the pIC50 was 6.30 to 7.00.

On to `N#Cc1ccc(COc2ccc(-c3cccn4nc(NC(=O)C5CC5)cc34)cc2)cn1` [Compound 9, N-(4-(4-((6-cyanopyridin-3-yl)methoxy)phenyl)pyrazolo[1,5-a]pyridin-2-yl)cyclopropanecarboxamide], for which the pIC50 was 6.30 to 7.00.

`CS(=O)(=O)N1CCN(Cc2ccc(-c3cccn4nc(NC(=O)C5CC5)cc34)cc2)CC1` [Compound 15, N-(4-(4-((4-(methylsulfonyl)piperazin-1-yl)methyl)phenyl)pyrazolo[1,5-a]pyridin-2-yl)cyclopropanecarboxamide] showed a pIC50 of 6.30 to 7.00.

In the case of `O=C(Nc1nn2cccc(-c3ccc(CN4CCS(=O)(=O)CC4)cc3)c2c1Cl)C1CC1` [Compound 13, Cyclopropanecarboxylic acid {4-[4-(1,1-dioxo-thiomorpholin-4-ylmethyl)-phenyl]-3-chloro-pyrazolo[1,5-a]pyridin-2-yl}-amide], the pIC50 is 6.00 to 6.30.

In turn, `O=C(Nc1cc2c(-c3ccc(C(=O)N4CCCCC4)cc3)cccn2n1)C1CC1` [Compound 14, Cyclopropanecarboxylic acid {4-[4-(piperidine-1-carbonyl)-phenyl]-pyrazolo[1,5-a]pyridin-2-yl}-amide] had a pIC50 of 6.30 to 7.00.

In turn, `CS(=O)(=O)C1CCN(Cc2ccc(-c3cccn4nc(NC(=O)C5CC5)cc34)cc2F)CC1` [Compound 18, N-(4-(3-fluoro-4-((4-(methylsulfonyl)piperidin-1-yl)methyl)phenyl)pyrazolo[1,5-a]pyridin-2-yl)cyclopropanecarboxamide] gave a pIC50 of 6.30 to 7.00.

In turn, `CS(=O)(=O)N1CCN(Cc2ccc(-c3cccn4nc(NC(=O)C5CC5)cc34)cn2)CC1` [Compound 23, N-(4-(6-((4-(methylsulfonyl)piperazin-1-yl)methyl)pyridin-3-yl)pyrazolo[1,5-a]pyridin-2-yl)cyclopropanecarboxamide] had a pIC50 of under 6.00.

`O=C(Nc1cc2c(-c3ccc(CN4CCCCC45COC5)cc3)cccn2n1)C1CC1` [Compound 48, N-(4-(4-(2-oxa-5-azaspiro[3.5]nonan-5-ylmethyl)phenyl)pyrazolo[1,5-a]pyridin-2-yl)cyclopropanecarboxamide] showed a negative logarithm of the IC50 (pIC50) of 6.00 to 6.30.

Consider `CC(=O)Nc1cc2c(-c3cnc(CN4CCN(S(C)(=O)=O)CC4)c(F)c3)cccn2n1` [Compound 26, N-(4-(5-fluoro-6-((4-(methylsulfonyl)piperazin-1-yl)methyl)pyridin-3-yl)pyrazolo[1,5-a]pyridin-2-yl)acetamide], for which the pIC50 was under 6.00.

`O=C(Nc1cc2c(-c3ccc(CN4CCS(=O)(=O)CC4)cc3)cccn2n1)C1CC1` [Compound 10, Cyclopropanecarboxylic acid {4-[4-(1,1-dioxo-thiomorpholin-4-ylmethyl)-phenyl]-pyrazolo[1,5-a]pyridin-2-yl}-amide]: the pIC50 was 6.30 to 7.00.

For `CS(=O)(=O)C1CCN(Cc2ccc(-c3cccn4nc(NC(=O)C5CC5)c(Cl)c34)cc2F)CC1` [Compound 20, N-(3-chloro-4-(3-fluoro-4-((4-(methylsulfonyl)piperidin-1-yl)methyl)phenyl)pyrazolo[1,5-a]pyridin-2-yl)cyclopropanecarboxamide], the pIC50 is under 6.00.

`O=C(Nc1nn2cccc(-c3ccc(CN4CCS(=O)(=O)CC4)cc3)c2c1F)C1CC1` [Compound 11, Cyclopropanecarboxylic acid {4-[4-(1,1-dioxo-thiomorpholin-4-ylmethyl)-phenyl]-3-fluoro-pyrazolo[1,5-a]pyridin-2-yl}-amide] gave a pIC50 of 6.00 to 6.30.

`CC(=O)Nc1cc2c(-c3ccc(CN4CCS(=O)(=O)CC4)c(F)c3)cccn2n1` [Compound 27, N-{4-[4-(1,1-Dioxo-thiomorpholin-4-ylmethyl)-3-fluoro-phenyl]-pyrazolo[1,5-a]pyridin-2-yl}-acetamide] showed a pIC50 of 6.30 to 7.00.
